Assay results: patent US20110257170A1, “4-MORPHOLINO-PYRIDO[3,2-D]PYRIMIDINES” (MERCK SERONO SA, priority 2008, published 2011)

How the values were obtained:
[1] = system: T1, Human recombinant GST-PI3K; assay: PI3K lipid phosphorylation scintillation proximity assay (neomycin-coated SPA beads); type: biochemical; conditions: 120 min at room temperature, isoform not stated
T1 construct: fused on or other part: GST tag
Excerpt: The efficacy of compounds of the invention in inhibiting the PI3K induced-lipid phosphorylation may be tested in the following binding assay. The assay combines the scintillation proximity assay technology (SPA, Amersham) with the capacity of neomycin (a polycationic antibiotic) to bind phospholipids with high affinity and specificity. The Scintillation Proximity Assay is based on the properties of weakly emitting isotopes (such as ^3H, ^125I, ^33P). Coating SPA beads with neomycin allows the detection of phosphorylated lipid substrates after incubation with recombinant PI3K and radioactive ATP in the same well, by capturing the radioactive phospholipids to the SPA beads through their specific binding to neomycin. […] After precipitation of the neomycin-coated PVT SPA beads for 5 minutes at 1500×g, radioactive Ptdlns(3)P is quantified by scintillation counting in a Wallac MicroBeta™ plate counter. […]

| SMILES | IC50 [1] [µM] | melting point |
| --- | --- | --- |
| Cc1ccc2nc(Cl)nc(N3CCOCC3)c2n1 [Example E-34, 2-Chloro-6-methyl-4-morpholin-4-ylpyrido[3,2-d]pyrimidine] | 8.61 | – |
| COC(=O)c1cc(Cl)c2nc(Cl)nc(N3CCOCC3)c2n1 [Example E-1, Methyl 2,8-dichloro-4-morpholin-4-yl-pyrido[3,2-d]pyrimidine-6-carboxylate] | – | 212 to 213 °C (dec.) |
